Values quoted from earlier work, collected in paper PMC7395068, “The evolution of strategies to minimise the risk of human drug-induced liver injury (DILI) in drug discovery and development” (Archives of Toxicology, 2020).
Where two headings read alike, the source gives them in different places.

Tests used:
[1] = test system: HepG2 cells, primary human hepatocytes; conditions: cited from earlier work
HepG2 cells [2] = conditions: cited from earlier work
human hepatocytes = conditions: In vitro Assay; ref Xu 2008; cited from earlier work
HepG2 cells [3] = conditions: In vitro Assay; ref Persson 2013; cited from earlier work
[4] = cited from earlier work
PHH spheroids = conditions: In vitro Assay; ref Vorrink 2018; cited from earlier work
[5] = cited from earlier work; remark: listed apart in the source
rBsep = conditions: In vitro Assay; ref Dawson 2012; cited from earlier work
[6] = test system: THLE or HepG2 cells, isolated mitochondria, BSEP; conditions: cited from earlier work
[7] = test system: THLE-Null and THLE-3A4 cells; conditions: In vitro Assay; ref Gustafsson 2014; cited from earlier work
[8] = test system: primary human hepatocytes, NIH3T3 fibroblasts, BSEP, CYP3A4; conditions: cited from earlier work
[9] = test system: isolated mouse liver mitochondria; conditions: In vitro Assay; ref Porceddu 2012; cited from earlier work
[10] = In vitro Assay, ref Garside 2014
[11] = In vitro Assay, ref O'Brien 2006
[12] = In vitro Assay, ref Schadt 2015
[13] = assignment in Garside 2014, ref Garside 2014

## c1ccc(CN(CC2=NCCN2)c2ccccc2)cc1 [antazoline]
[1]; [10]
  Cluster 1-6 +VE Assay: -VE

## CN(C)C(=O)Oc1cc(OC(=O)N(C)C)cc(C(O)CNC(C)(C)C)c1 (stereo not shown) [bambuterol]
HepG2 cells [2]; [11]
  Structural based (HCI): +VE
Human hepatocytes
  Structural based (HCI): -VE
HepG2 cells [3]
  Cluser analysis: -VE
  Structural based (HCI): -VE
[4]; ref O'Brien 2006
  In vivo DILI: -VE
[4]; ref Persson 2013
  In vivo DILI: -VE
[4]; ref Vorrink 2018
  In vivo DILI: -VE
[4]; ref Xu 2008
  In vivo DILI: -VE
PHH spheroids
  hLiMTs ATP <20 x Cmax: -VE

## OC(CCN1CCCCC1)(c1ccccc1)C1CC2C=CC1C2 (stereo not shown) [biperiden]
[1]; [10]
  Cluster 1-6 +VE Assay: -VE

## CCCCN(CCCC)CCCOC(=O)c1ccc(N)cc1 [butacaine]
[1]; [10]
  Cluster 1-6 +VE Assay: +VE
[4]; ref Garside 2014
  In vivo DILI: -VE

## CO[C@@]1(NC(=O)C2SC(=C(C(N)=O)C(=O)O)S2)C(=O)N2C(C(=O)O)=C(CSc3nnnn3C)CS[C@@H]21 (stereo partly shown) [cefotetan]
[5]; ref Chen 2016
  DILI +VE (5-8), DILI -VE (-4): -VE
  DILI severity category: Ambiguous DILI-concern
[1]; [10]
  Cluster 1-6 +VE Assay: -VE
[4]; ref Garside 2014
  In vivo DILI: -VE

## COc1ccc(C(Cl)=C(c2ccc(OC)cc2)c2ccc(OC)cc2)cc1 [chlorotrianisene]
[1]; [10]
  Cluster 1-6 +VE Assay: -VE
[4]; ref Garside 2014
  In vivo DILI: -VE

## O=C(O)c1cc(-c2ccccc2)nc2ccccc12 [cinchophen]
[5]; in vivo
  DILI +VE (5-8), DILI -VE (-4): +VE
  DILI severity category: vMost-DILI-Concern
rBsep
  Inhibition of rBsep cutoff<1& cmax u>.2: -VE
  Inhibition of rBsep cutoff<3: +VE
[6]
  Partition Hybrid HRM Score: +VE
[4]; in vivo
  In vivo DILI: +VE
[7]
  THLE-Null: -VE

## CC(C)(Oc1ccc(C2CC2(Cl)Cl)cc1)C(=O)O (stereo not shown) [ciprofibrate]
rBsep
  Inhibition of rBsep cutoff<1& cmax u>.2: -VE
  Inhibition of rBsep cutoff<3: +VE
HepG2 cells [2]; [11]
  Structural based (HCI): +VE
Human hepatocytes
  Structural based (HCI): +VE
[4]; ref Dawson 2012
  In vivo DILI: +VE
[4]; ref Gustafsson 2014
  In vivo DILI: +VE
[4]; ref O'Brien 2006
  In vivo DILI: +VE
[4]; ref Schadt 2015
  In vivo DILI: -VE
[4]; ref Xu 2008
  In vivo DILI: +VE
[7]
  THLE-Null: -VE
  THLE-Null/3A4: -VE
[8]; [12]
  Cellular toxicity (3T3 cells): -VE
  Combined Assay: -VE
  GSH adduct HML: -VE
  Hepatocyte cellular toxicity: -VE
  MitoTox 3T3: -VE
  TDI CYP3A4: -VE
  hBSEP inhibition: -VE

## O=c1ccc2ccccc2o1 [coumarin]
[4]; […]
  In vivo DILI: +VE
[4]; ref Porceddu 2012
  In vivo DILI: +VE
[4]; ref Vorrink 2018
  In vivo DILI: +VE
[9]
  in vitro data EC2<=1x Cmax: +VE
  in vitro data EC20<=2uM: +VE
PHH spheroids
  hLiMTs ATP <20 x Cmax: +VE (IC20 < 20 × Cmax.tot cut-off)

## CCCCC[C@H](O)/C=C/[C@H]1[C@H](O)CC(=O)[C@@H]1C/C=C\CCCC(=O)O [dinoprostone]
[1]; [10]
  Cluster 1-6 +VE Assay: -VE
[4]; ref Garside 2014
  In vivo DILI: -VE

## Cn1c(=O)c2c(ncn2CC(O)CO)n(C)c1=O (stereo not shown) [dyphylline]
[5]; ref Chen 2016
  DILI +VE (5-8), DILI -VE (-4): -VE
  DILI severity category: vNo-DILI-Concern
[1]; [10]
  Cluster 1-6 +VE Assay: -VE
[4]; ref Garside 2014
  In vivo DILI: -VE

## C[C@H](N[C@@H](CCc1ccccc1)C(=O)O)C(=O)N1CCC[C@H]1C(=O)O [enalaprilat]
[5]; ref Chen 2016
  DILI +VE (5-8), DILI -VE (-4): -VE
  DILI severity category: Ambiguous DILI-concern
[1]
  Cluster 1-6 +VE Assay: -VE
[4]; in vivo
  In vivo DILI: +VE

## CC(C)OC(=O)C(C)(C)Oc1ccc(C(=O)c2ccc(Cl)cc2)cc1 [fenofibrate]
[6]; In vitro Assay, ref Aleo 2019
  Partition Hybrid HRM Score: +VE
  Ro2 Hybrid HRM Score: +VE
Human hepatocytes
  Structural based (HCI): -VE
HepG2 cells [3]
  Cluser analysis: -VE
PHH spheroids
  hLiMTs ATP <20 x Cmax: +VE (IC20 < 20 × Cmax.tot cut-off)

## NS(=O)(=O)c1cc(C(=O)O)c(NCc2ccco2)cc1Cl [furosemide, reference compound]
HepG2 cells [2]; [11]
  Structural based (HCI): -VE
HepG2 cells [3]
  Cluser analysis: -VE
  Structural based (HCI): -VE
[7]
  THLE-Null: -VE

## CC(Oc1c(Cl)cccc1Cl)C1=NCCN1 (stereo not shown) [lofexidine]
[1]; ref Garside 2014
  Cluster 1-6 +VE Assay, In vitro Assay: -VE
[4]; [13]
  In vivo DILI: -VE

## Cc1ccc(Nc2c(F)cccc2Cl)c(CC(=O)O)c1 [lumiracoxib]
[7]
  THLE-Null: +VE
[9]
  in vitro data EC2<=1x Cmax: +VE
[8]; [12]
  Cellular toxicity (3T3 cells): -VE
  Combined Assay: +VE
  GSH adduct HML: +VE
  Hepatocyte cellular toxicity: -VE
  MitoTox 3T3: -VE
  TDI CYP3A4: -VE
  hBSEP inhibition: -VE

## CC(=O)[C@H]1CC[C@H]2[C@@H]3C[C@H](C)C4=CC(=O)CC[C@]4(C)[C@H]3[C@@H](O)C[C@]12C [medrysone]
[1]; ref Garside 2014
  Cluster 1-6 +VE Assay, In vitro Assay: +VE
[4]; [13]
  In vivo DILI: -VE

## Cc1cc2c(s1)Nc1ccccc1N=C2N1CCN(C)CC1 [olanzapine]
[4]; […]
  In vivo DILI: -VE
[4]; ref Gustafsson 2014
  In vivo DILI: +VE
[4]; ref Schadt 2015
  In vivo DILI: -VE
[4]; ref Williams 2019
  In vivo DILI: +VE
[7]
  THLE-Null: -VE

## Nc1ccc(/N=N/c2ccccc2)c(N)n1 [phenazopyridine]
[6]; In vitro Assay, ref Aleo 2019
  Partition Hybrid HRM Score: +VE
  Ro2 Hybrid HRM Score: -VE
Human hepatocytes
  Structural based (HCI): -VE
[4]; ref Aleo 2019
  In vivo DILI: -VE
[4]; ref Vorrink 2018
  In vivo DILI: +VE
[4]; ref Xu 2008
  In vivo DILI: +VE
PHH spheroids
  hLiMTs ATP <20 x Cmax: -VE

## COc1cc(NC(C)CCCN)c2ncccc2c1 (stereo not shown) [primaquine]
[5]; ref Chen 2016
  DILI +VE (5-8), DILI -VE (-4): -VE
  DILI severity category: vNo-DILI-Concern
[6]; In vitro Assay, ref Aleo 2019
  Partition Hybrid HRM Score: -VE
  Ro2 Hybrid HRM Score: -VE
HepG2 cells [2]; [11]
  Structural based (HCI): +VE
Human hepatocytes
  Structural based (HCI): -VE
[4]; ref Aleo 2019
  In vivo DILI: -VE
[4]; ref O'Brien 2006
  In vivo DILI: -VE
[4]; ref Schadt 2015
  In vivo DILI: -VE
[4]; ref Vorrink 2018
  In vivo DILI: -VE
[4]; ref Xu 2008
  In vivo DILI: -VE
[8]
  hBSEP inhibition: -VE
PHH spheroids
  hLiMTs ATP <20 x Cmax: -VE

## C=C[C@H]1C[N@@]2CC[C@H]1C[C@@H]2[C@@H](O)c1ccnc2ccc(OC)cc12 [quinidine]
[5]; in vivo
  DILI +VE (5-8), DILI -VE (-4): +VE
  DILI severity category: vLess-DILI-Concern
HepG2 cells [2]
  Structural based (HCI): +VE
[8]
  Cellular toxicity (3T3 cells): +VE
  GSH adduct HML: -VE
  TDI CYP3A4: -VE
  hBSEP inhibition: -VE
PHH spheroids
  hLiMTs ATP <20 x Cmax: +VE (IC20 < 20 × Cmax.tot cut-off)

## Cc1nc2n(c(=O)c1CCN1CCC(c3noc4cc(F)ccc34)CC1)CCCC2 [risperidone]
Human hepatocytes
  Structural based (HCI): -VE
HepG2 cells [3]
  Cluser analysis: +VE
  Structural based (HCI): -VE
[4]; ref Persson 2013
  In vivo DILI: +VE
[4]; ref Vorrink 2018
  In vivo DILI: +VE
[4]; ref Xu 2008
  In vivo DILI: +VE
PHH spheroids
  hLiMTs ATP <20 x Cmax: -VE

## O=C(O)c1ccccc1O [salicylic acid]
rBsep
  Inhibition of rBsep cutoff<1& cmax u>.2: -VE
  Inhibition of rBsep cutoff<3: -VE
[7]
  THLE-Null: -VE
[9]
  in vitro data EC2<=1x Cmax: +VE

## Cc1nnc(NS(=O)(=O)c2ccc(N)cc2)s1 [sulfamethizole]
[1]; [10]
  Cluster 1-6 +VE Assay: -VE

## CCN1CCCC1CNC(=O)c1cc(S(N)(=O)=O)ccc1OC (stereo not shown) [sulpiride]
rBsep
  Inhibition of rBsep cutoff<1& cmax u>.2: -VE
  Inhibition of rBsep cutoff<3: -VE
[4]; in vivo
  In vivo DILI: +VE
[7]
  THLE-Null: -VE

## Cn1nnc2c(C(N)=O)ncn2c1=O [temozolomide]
[5]; ref Chen 2016
  DILI +VE (5-8), DILI -VE (-4): +VE
  DILI severity category: vLess-DILI-Concern
HepG2 cells [2]; [11]
  Structural based (HCI): +VE (lowest HCI endpoint IC50 (or in the absence of dose–response < 100 µM) < 30 × total human plasma exposure levels (Cmax.tot))
Human hepatocytes
  Structural based (HCI): -VE
[4]; ref O'Brien 2006
  In vivo DILI: -VE
[4]; ref Vorrink 2018
  In vivo DILI: -VE
[4]; ref Xu 2008
  In vivo DILI: -VE
PHH spheroids
  hLiMTs ATP <20 x Cmax: -VE
